In patent US11311475B2, “Skin care compositions containing peptide compound and aphanothece sacrum exopolysaccharide extract” (The Procter & Gamble Company, priority 2019, dated 2022):

Assay: Franz diffusion cell skin penetration assay
Assay type: in vitro ADME, human
Conditions: for pal-KT Skin Penetration: Surface Residual / pal-KT Skin Penetration: Dermis / pal-KT Skin Penetration: Epidermis / pal-KT Skin Penetration: Total Penetration / pal-KT Skin Penetration: Receptor: pal-KT 5 ppm; for pal-KT Skin Penetration: Surface Residual: 14C-spiked, 24 h after topical dose on human skin; for pal-KT Skin Penetration: Total Penetration: epidermis+dermis+receptor; for pal-KT Skin Penetration: Receptor: receptor solution (transdermal)
Experimental: The method is described. […] (40 ppm) is assessed using the Franz diffusion cell assay (4, T. J. Franz, J. Invest. Dermatol. 64: 190-195, 1975; T. J. Franz, et al., Skin Pharmacol. Physiol. 22: 276-286, 2009). The peptides are formulated in a skin care silicone-in-water (SWF) formulation with or without 10 wt % SACRAN. The formulations are spiked with ^14C-pal-KT or ^3H-PKEK. Twenty-four hours after topically dosed on human skin, residual product is removed from the skin surface, the epidermal and dermal layers were separated, and receptor solutions (transdermal) are collected.

[1] = SWF + 10 wt % SACRAN versus SWF, 24 h, human skin
[2] = SWF formulation without SACRAN (control), 24 h

For `CCCCCCCCCCCCCCCC(=O)N[C@@H](CCCCN)C(=O)N[C@H](C(=O)O)[C@@H](C)O` [pal-KT, palmitoyl-lysine-threonine], the “amount recovered from the surface of the skin with SACRAN versus without (in words)” value [1] was “statistically significant lower amount”, the “effect of addition of SACRAN on skin penetration (in words)” value [1] was “increased” and the “pal-KT Skin Penetration: Surface Residual” value (SWF + 10 wt % SACRAN) was 173.2 ± 18.1 ng/cm^2. For the same compound, the “pal-KT Skin Penetration: Dermis” value (SWF + 10 wt % SACRAN, 24 h) was 14.8 ± 1.65 ng/cm^2, the “pal-KT Skin Penetration: Epidermis” value (SWF + 10 wt % SACRAN, 24 h) was 128.3 ± 17.1 ng/cm^2 and the “pal-KT Skin Penetration: Total Penetration” value (SWF + 10 wt % SACRAN, 24 h) was 143.3 ± 18.1 ng/cm^2. The “pal-KT Skin Penetration: Receptor” value (SWF + 10 wt % SACRAN, 24 h) was 0.09 ± 0.07 ng/cm^2, the “increase in skin penetration by addition of SACRAN to SWF” value (SWF + SACRAN versus SWF, single topical application) was 60% and the “pal-KT Skin Penetration: Surface Residual” value (SWF formulation without SACRAN (control)) was 228.5 ± 10.2 ng/cm^2. For the same compound, the “pal-KT Skin Penetration: Dermis” value [2] was 14.3 ± 1.4 ng/cm^2, the “pal-KT Skin Penetration: Epidermis” value [2] was 72.5 ± 9.5 ng/cm^2 and the “pal-KT Skin Penetration: Total Penetration” value [2] was 88.0 ± 10.2 ng/cm^2. For the same compound, the “pal-KT Skin Penetration: Receptor” value [2] was 0.14 ± 0.14 ng/cm^2.
